Common to all, as to assay type: biochemical
For one experiment, the target named is Pim-3 (Homo sapiens (Human), UniProt Q86V86). Briefly: Pim-3 kinase assay. Conditions: 1 mM ATP, biotin-labeled BAD peptide substrate; read-out: Pim3 IC50. Here is the method:
(§1) Pim-1 and Pim-3 kinase assays-20 μL reactions were run in white 384 well polystyrene plates dotted with 0.8 μL compound/DMSO in the assay buffer (50 mM Tris, pH 7.5, 0.01% Tween-20, 5 mM MgCl2, 0.01% BSA, 5 mM DTT), containing […] Biotin-labeled BAD peptide substrate (AnaSpec 62269), 1 mM ATP, and 2.5 pM (Pim-1, Invitrogen PV3503) or 1.25 pM (Pim-3, Millipore 14-738) enzyme for 1 h at 25° C. Reactions were stopped by addition of 10 μL STOP Buffer (150 mM Tris, pH=7.5, 150 mM NaCl, 75 mM EDTA, 0.01% Tween-20, 0.3% BSA) supplemented with Phospho-Bad (Ser112) Antibody (Cell Signaling 9291) diluted 666-fold, and Streptavidin donor beads (PerkinElmer 6760002) along with Protein-A acceptor beads (PerkinElmer 6760137) at 15 μg/mL each. Supplementation of the STOP buffer with beads and stopping the reactions were done under reduced light. Prior to the stopping reactions STOP buffer with beads was pre-incubated for 1 h in the dark at room temperature. After stopping the reactions, plates were incubated for 1 h in the dark at room temperature before reading on a PHERAstar FS plate reader (BMG Labtech) under reduced light.

The target of another experiment is Pim-1 (Homo sapiens (Human), UniProt P11309). The experiment can be described thus: Pim-1 kinase assay. The settings on record: 1 mM ATP, biotin-labeled BAD peptide substrate; read-out: Pim1 IC50. As for the experimental part:
as §1

In the next experiment the target is Pim-2 (Homo sapiens (Human), UniProt Q9P1W9). Briefly: Pim-2 kinase assay. Conditions: 1 mM ATP, fluorescein-labeled CREBtide peptide substrate; read-out: Pim2 IC50. Here is the method:
Pim-2 kinase assay-20 μL reactions were run in white 384 well polystyrene plates dotted with 0.8 μL compound/DMSO in the assay buffer (50 mM Tris, pH 7.5, 0.01% Tween-20, 5 mM MgCl2, 0.01% BSA, 5 mM DTT), containing 0.05 μm Fluorescein-labeled CREBtide peptide substrate (Invitrogen PV3508), 1 mM ATP, and 1 nM enzyme (Invitrogen PV3649) for 2 h at 25° C. Reactions were stopped by addition of 10 μL TR-FRET Dilution Buffer (Invitrogen PV3574) with 30 mM EDTA and 1.5 nM LanthaScreen Tb-CREB pSer133 antibody (Invitrogen PV3566). After 30 min. incubation at room temperature, plates were read on a PHERAstar FS plate reader (BMG Labtech).

Bounds are passed on as bounds.

Pim-2, sequence (Q9P1W9 whole entry): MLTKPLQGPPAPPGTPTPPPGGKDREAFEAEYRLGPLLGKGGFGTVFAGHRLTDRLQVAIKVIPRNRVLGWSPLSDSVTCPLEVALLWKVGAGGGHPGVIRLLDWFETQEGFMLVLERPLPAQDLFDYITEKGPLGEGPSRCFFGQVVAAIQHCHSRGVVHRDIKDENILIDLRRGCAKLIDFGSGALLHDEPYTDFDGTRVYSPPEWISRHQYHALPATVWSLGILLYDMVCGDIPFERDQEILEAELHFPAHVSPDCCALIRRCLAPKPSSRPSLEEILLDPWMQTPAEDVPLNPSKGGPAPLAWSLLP
Pim-1, sequence (P11309 whole entry): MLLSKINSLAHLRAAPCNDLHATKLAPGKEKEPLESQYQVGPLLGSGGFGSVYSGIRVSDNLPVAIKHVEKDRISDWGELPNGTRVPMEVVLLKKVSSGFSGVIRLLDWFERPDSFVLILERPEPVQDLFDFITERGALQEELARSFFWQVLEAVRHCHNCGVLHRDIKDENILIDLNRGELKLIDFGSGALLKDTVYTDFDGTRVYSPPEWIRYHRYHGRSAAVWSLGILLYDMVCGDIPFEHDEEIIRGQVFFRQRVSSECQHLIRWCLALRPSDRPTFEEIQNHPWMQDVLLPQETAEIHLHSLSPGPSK

As for `Nc1oc2cc(C(F)(F)F)cnc2c1C(=O)Nc1cnccc1N1CCC[C@H](N)C1` [Example 48, 2-amino-N-{4-[(3S)-3-aminopiperidin-1-yl]pyridin-3-yl}-6-(trifluoromethyl)furo[3,2-b]pyridine-3-carboxamide], the IC50 on Pim-3 is at most 10 nM; on Pim-1, at most 10 nM; at Pim-2 it was 10 to 100 nM.

For `C[C@@H]1C[C@H](N)CN(c2ccncc2NC(=O)c2c(N)oc3cc(C4CCOCC4)cnc23)C1` [Example 95, 2-Amino-N-{4-[(3S,5R)-3-amino-5-methylpiperidin-1-yl]pyridin-3-yl}-6-(tetrahydro-2H-pyran-4-yl)furo[3,2-b]pyridine-3-carboxamide], the figures for the 50% inhibitory concentration (IC50) on Pim-3, on Pim-1 and at Pim-2 were at most 10 nM, at most 10 nM and 10 to 100 nM, respectively.

For the molecule `Nc1sc2ccc(Cl)nc2c1C(=O)Nc1cnccc1N1CCC[C@H](N)C1` (stereo in doubt) [Example 40, 2-Amino-N-[4-(3-aminopiperidin-1-yl)pyridin-3-yl]-5-chlorothieno[3,2-b]pyridine-3-carboxamide], the half-inhibitory concentration (IC50) is 10 to 100 nM at Pim-3, at most 10 nM at Pim-1 and over 2000 nM on Pim-2.

On to `CC(C)Oc1ccnc2c(C(=O)Nc3cnccc3N3CCC[C@H](N)C3)c(N)sc12` [Example 18, 2-Amino-N-{4-[(3S)-3-aminopiperidin-1-yl]pyridin-3-yl}-7-isopropoxythieno[3,2-b]pyridine-3-carboxamide], for which the figures for the 50% inhibitory concentration (IC50) at Pim-3, on Pim-1 and on Pim-2 were at most 10 nM, over 40 nM and over 1000 nM, respectively.

As for `Cc1cnc2c(C(=O)Nc3cnccc3N3C[C@@H](N)C[C@@H](C(F)(F)F)C3)c(N)oc2c1` [Example 115, 2-Amino-N-{4-[(3S,5R)-3-amino-5-(trifluoromethyl)piperidin-1-yl]pyridin-3-yl}-6-methylfuro[3,2-b]pyridine-3-carboxamide], the IC50 at Pim-3, at Pim-1 and on Pim-2 was at most 10 nM in each case.

`CC(C)Oc1cnc2c(C(=O)Nc3cnccc3N3C[C@H](C)C[C@H](N)C3)c(N)oc2c1` [Example 121, 2-Amino-N-(4-((3S,5R)-3-amino-5-methylpiperidin-1-yl)pyridin-3-yl)-6-isopropoxyfuro[3,2-b]pyridine-3-carboxamide]: the IC50 at Pim-3 is at most 10 nM; at Pim-1 it was at most 10 nM; on Pim-2, 10 to 100 nM.

As for `Nc1oc2cc(C3CC3)cnc2c1C(=O)Nc1cnccc1N1C[C@@H](N)C[C@@H](C(F)(F)F)C1` [Example 113, 2-Amino-N-{4-[(3S,5R)-3-amino-5-(trifluoromethyl)piperidin-1-yl]pyridin-3-yl}-6-cyclopropylfuro[3,2-b]pyridine-3-carboxamide], the IC50 on Pim-3, at Pim-1 and on Pim-2 was at most 10 nM throughout.

In the case of `C[C@@H]1C[C@H](N)CN(c2ccncc2NC(=O)c2c(N)sc3cccnc23)C1` [Example 15, 2-Amino-N-{4-[(3S,5R)-3-amino-5-methyl-piperidin-1-yl]pyridin-3-yl}-thieno[3,2-b]pyridine-3-carboxamide], the 50% inhibitory concentration (IC50) is at most 10 nM at Pim-3, at most 10 nM on Pim-1 and 100 to 1000 nM on Pim-2.

For `Nc1oc2cc(Cl)cnc2c1C(=O)Nc1cnccc1N1CCC[C@H](N)C1` [Example 53, 2-amino-N-{4-[(3S)-3-aminopiperidin-1-yl]pyridin-3-yl}-6-chloro-furo[3,2-b]pyridine-3-carboxamide], the IC50 on Pim-3 is at most 10 nM; on Pim-1, at most 10 nM; at Pim-2, 10 to 100 nM.

In the case of `Cn1ncc(NC(=O)c2c(N)oc3cc(Cl)cnc23)c1N1CCCC(N)CC1` (stereo not drawn) [Example 57, 2-Amino-N-[5-(4-aminoazepan-1-yl)-1-methyl-1H-pyrazol-4-yl]-6-chlorofuro[3,2-b]pyridine-3-carboxamide], the results for the IC50 on Pim-3, on Pim-1 and on Pim-2 were at most 10 nM, at most 10 nM and 100 to 1000 nM, respectively.

Consider `Nc1oc2cccnc2c1C(=O)Nc1cnccc1N1C[C@@H](N)[C@H](O)[C@@H](C(F)(F)F)C1` (single isomer, unassigned) [Example 87 (Diastereoisomer 2)], for which the IC50 is at most 10 nM at Pim-3, at most 10 nM at Pim-1 and 10 to 100 nM on Pim-2.

Take `COC1CCN(Cc2cnc3c(C(=O)Nc4cnccc4N4C[C@@H](N)C[C@@H](C(F)(F)F)C4)c(N)oc3c2)C1` (stereo partly drawn) [Example 103, 2-Amino-N-{4-[(3S,5R)-3-amino-5-(trifluoromethyl)piperidin-1-yl]pyridin-3-yl}-6-[(3-methoxypyrrolidin-1-yl)methyl]furo[3,2-b]pyridine-3-carboxamide]: the IC50 is at most 10 nM on Pim-3, at most 10 nM on Pim-1 and 10 to 100 nM at Pim-2.

For the molecule `CCc1cnc2c(C(=O)Nc3cnn(C)c3N3CCCC(N)CC3)c(N)sc2c1` (stereo not drawn) [Example 23, 2-Amino-N-[5-(4-aminoazepan-1-yl)-1-methyl-1H-pyrazol-4-yl]-6-ethylthieno[3,2-b]pyridine-3-carboxamide], the IC50 on Pim-3 was at most 10 nM; at Pim-1, at most 10 nM; on Pim-2 it was 10 to 100 nM.

As to `CC(C)Oc1ccnc2c(C(=O)Nc3cnn(C)c3N3CCCC(N)CC3)c(N)sc12` (stereo not drawn) [Example 19, 2-Amino-N-[5-(4-aminoazepan-1-yl)-1-methyl-1H-pyrazol-4-yl]-7-isopropoxythieno[3,2-b]pyridine-3-carboxamide], the IC50 on Pim-3 is at most 10 nM; at Pim-1, at most 10 nM; on Pim-2, 10 to 100 nM.

As for `C[C@H]1CN(c2ccncc2NC(=O)c2c(N)oc3cc(C4CCC4)cnc23)C[C@@H](N)[C@@H]1O` [Example 124, 2-Amino-N-{4-[(3R,4R,5S)-3-amino-4-hydroxy-5-methylpiperidin-1-yl]pyridin-3-yl}-6-cyclobutylfuro[3,2-b]pyridine-3-carboxamide], the half-inhibitory concentration (IC50) on Pim-3, on Pim-1 and at Pim-2 was at most 10 nM throughout.

`CN1CC(c2cnc3c(C(=O)Nc4cnn(C)c4N4CCCC(N)CC4)c(N)sc3c2)C1` (stereo not drawn) [Example 32, 2-Amino-N-[5-(4-aminoazepan-1-yl)-1-methyl-1H-pyrazol-4-yl]-6-(1-methylazetidin-3-yl)thieno[3,2-b]pyridine-3-carboxamide]: the figures for the 50% inhibitory concentration (IC50) at Pim-3, on Pim-1 and on Pim-2 were at most 10 nM, at most 10 nM and 100 to 1000 nM, respectively.

`Nc1oc2cccnc2c1C(=O)Nc1cnccc1[C@H]1C[C@@H](N)C[C@@H](C(F)(F)F)C1` [Example 136, 2-Amino-N-{4-[(1R,3R,5S)-3-amino-5-(trifluoromethyl)cyclohexyl]pyridin-3-yl}furo[3,2-b]pyridine-3-carboxamide]: the half-inhibitory concentration (IC50) at Pim-3 is at most 10 nM; at Pim-1 it was at most 10 nM; on Pim-2, 10 to 100 nM.

`CC(C)N1CC(c2cnc3c(C(=O)Nc4cnccc4N4CCC[C@H](N)C4)c(N)sc3c2)C1` [Example 33, 2-Amino-N-{4-[(3S)-3-aminopiperidin-1-yl]pyridin-3-yl}-6-(1-isopropylazetidin-3-yl)thieno[3,2-b]pyridine-3-carboxamide]: the IC50 on Pim-3 was 10 to 100 nM; at Pim-1 it was at most 10 nM; on Pim-2, over 2000 nM.

Turning to `CCCc1cnc2c(C(=O)Nc3cnccc3N3C[C@@H](N)[C@H](O)[C@@H](C)C3)c(N)sc2c1` [Example 140, 2-Amino-N-(4-((3R,4R,5S)-3-amino-4-hydroxy-5-methylpiperidin-1-yl)pyridin-3-yl)-6-propylthieno[3,2-b]pyridine-3-carboxamide], the concentration for half-maximal inhibition (IC50) on Pim-3, at Pim-1 and at Pim-2 was at most 10 nM throughout.

As for `C[C@H]1CN(c2ccncc2NC(=O)c2c(N)oc3cc(C(F)(F)F)cnc23)C[C@@H](N)[C@@H]1O` [Example 68, 2-Amino-N-{4-[(3R,4R,5S)-3-amino-4-hydroxy-5-methylpiperidin-1-yl]pyridin-3-yl}-6-(trifluoromethyl)furo[3,2-b]pyridine-3-carboxamide], the half-maximal inhibitory concentration (IC50) on Pim-3 is at most 10 nM; on Pim-1, at most 10 nM; on Pim-2, 10 to 100 nM.

As to `Nc1oc2cc(Br)cnc2c1C(=O)Nc1cnccc1N1CCC[C@H](N)C1` [Example 54, 2-amino-N-{4-[(3S)-3-aminopiperidin-1-yl]pyridin-3-yl}-6-bromo-furo[3,2-b]pyridine-3-carboxamide], the results for the IC50 on Pim-3, at Pim-1 and on Pim-2 were at most 10 nM, at most 10 nM and 10 to 100 nM, respectively.

(Values after patent US10000507B2, “Furo- and thieno-pyridine carboxamide compounds useful as pim kinase inhibitors” (Incyte Corporation, priority 2013, dated 2018).)
